# Data as given in US20240174663A1, “PYRIMIDINE OR PYRIDINE DERIVATIVES USEFUL AS HCN2 MODULATORS” (King's College London, priority 2021, published 2024).
# Counter-ions that a name gives are not always drawn.
# Columns and labels:
# HCN2 = biological target: T1, HCN2 (Homo sapiens, UniProt Q9UL51); assay: HCN2 assay using PatchXpress 7000A (PX protocol, Example 25); type: cell-based; details: room temperature
# T1 sequence (Q9UL51 1-889): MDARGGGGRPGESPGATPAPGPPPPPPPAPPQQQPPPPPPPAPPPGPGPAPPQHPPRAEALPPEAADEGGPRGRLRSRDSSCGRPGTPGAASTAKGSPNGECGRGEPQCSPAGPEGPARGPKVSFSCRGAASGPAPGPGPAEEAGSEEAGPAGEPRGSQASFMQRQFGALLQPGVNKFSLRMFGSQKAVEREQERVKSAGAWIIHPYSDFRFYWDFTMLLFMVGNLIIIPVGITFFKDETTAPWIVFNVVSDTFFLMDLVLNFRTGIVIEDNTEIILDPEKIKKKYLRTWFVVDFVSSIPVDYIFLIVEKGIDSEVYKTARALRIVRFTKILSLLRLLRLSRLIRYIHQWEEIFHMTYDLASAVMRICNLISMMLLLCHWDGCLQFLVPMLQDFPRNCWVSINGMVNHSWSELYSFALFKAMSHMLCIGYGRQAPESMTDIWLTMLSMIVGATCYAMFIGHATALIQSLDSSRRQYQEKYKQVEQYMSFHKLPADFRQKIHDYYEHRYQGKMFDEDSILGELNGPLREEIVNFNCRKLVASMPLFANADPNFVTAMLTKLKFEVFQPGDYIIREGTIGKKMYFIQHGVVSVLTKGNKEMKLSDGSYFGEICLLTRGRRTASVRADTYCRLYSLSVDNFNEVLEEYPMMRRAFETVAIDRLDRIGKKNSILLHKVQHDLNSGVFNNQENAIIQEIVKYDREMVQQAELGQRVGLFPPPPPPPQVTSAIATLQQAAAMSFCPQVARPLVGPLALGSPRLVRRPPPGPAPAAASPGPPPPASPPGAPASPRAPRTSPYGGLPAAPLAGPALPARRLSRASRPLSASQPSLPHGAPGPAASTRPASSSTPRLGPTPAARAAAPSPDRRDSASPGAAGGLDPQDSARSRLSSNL
# Experimental: (§1) Example 25: Assay for HCN1 HCN2 and HCN4 Using PatchXpress 7000A
# (§2) Solutions for recording HCN currents were:
# The membrane voltage was then stepped back to −30 mV for a further 8 seconds.
# (§3) The peak inward current measured at the end of the pulse to −110 mV (HCN1 and HCN2) or −130 mV (HCN4) was measured and any leak current subtracted to calculate the HCN current. The HCN current amplitude was measured after each control or compound addition and normalized to the control amplitude (Control A).
# (§4) All experiments were performed at room temperature (approximately 22° C.).
# (§5) Each test compound concentration was applied to the cell for seven (7) minutes, at which point the next cumulative concentration was applied.
# HCN4 = biological target: T2, HCN4 (Homo sapiens, UniProt Q9Y3Q4); assay: HCN4 assay using PatchXpress 7000A (PX protocol, Example 25); type: cell-based; details: room temperature
# T2 sequence (Q9Y3Q4 1-1203): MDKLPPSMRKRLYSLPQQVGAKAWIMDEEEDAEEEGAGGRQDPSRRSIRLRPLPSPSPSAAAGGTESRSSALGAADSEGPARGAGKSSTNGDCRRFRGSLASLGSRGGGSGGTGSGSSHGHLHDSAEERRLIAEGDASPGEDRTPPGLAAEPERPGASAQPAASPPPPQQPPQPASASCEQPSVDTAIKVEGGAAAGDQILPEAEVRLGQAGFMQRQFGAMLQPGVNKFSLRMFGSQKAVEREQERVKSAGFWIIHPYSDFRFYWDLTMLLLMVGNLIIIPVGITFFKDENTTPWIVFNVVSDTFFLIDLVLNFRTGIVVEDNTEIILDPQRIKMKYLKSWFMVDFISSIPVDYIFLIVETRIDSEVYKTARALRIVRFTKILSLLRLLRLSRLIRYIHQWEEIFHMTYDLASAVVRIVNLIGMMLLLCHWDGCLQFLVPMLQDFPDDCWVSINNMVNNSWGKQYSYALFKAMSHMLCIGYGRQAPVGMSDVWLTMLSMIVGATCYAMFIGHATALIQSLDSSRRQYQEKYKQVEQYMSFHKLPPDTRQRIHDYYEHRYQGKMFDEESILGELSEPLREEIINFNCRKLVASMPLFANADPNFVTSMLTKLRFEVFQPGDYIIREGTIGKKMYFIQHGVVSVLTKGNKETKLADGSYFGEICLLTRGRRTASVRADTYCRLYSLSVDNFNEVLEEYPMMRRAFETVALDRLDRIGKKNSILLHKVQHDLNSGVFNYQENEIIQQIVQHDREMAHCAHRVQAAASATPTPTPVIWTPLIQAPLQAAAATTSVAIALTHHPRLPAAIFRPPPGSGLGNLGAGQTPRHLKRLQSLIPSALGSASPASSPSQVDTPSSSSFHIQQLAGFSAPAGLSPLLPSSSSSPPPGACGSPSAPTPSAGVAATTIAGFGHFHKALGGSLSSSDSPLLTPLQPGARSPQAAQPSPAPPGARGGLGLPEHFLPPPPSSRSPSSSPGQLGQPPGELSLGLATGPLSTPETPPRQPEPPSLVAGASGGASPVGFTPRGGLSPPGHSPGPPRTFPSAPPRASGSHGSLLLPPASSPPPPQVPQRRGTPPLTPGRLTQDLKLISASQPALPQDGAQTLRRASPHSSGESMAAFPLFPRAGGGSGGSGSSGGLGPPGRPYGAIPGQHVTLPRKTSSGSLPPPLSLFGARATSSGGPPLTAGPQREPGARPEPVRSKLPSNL
# Experimental: as §1, §2, §3, §4, §5
compound,measurement,setting,value
"Cn1nc(-c2cccnc2[C@@H](N)Cc2ccccn2)c2ccccc21 [Example 3, (S)-1-[3-(1-Methyl-1H-indazol-3-yl)pyridine-2-yl]-2-(pyridin-2-yl)ethan-1-amine hydrochloride]",IC50,HCN2,5.7 µM
same,IC50,HCN4,> 30 µM
"N#Cc1cccc(C[C@H](N)c2ncccc2-c2noc3ccccc23)n1 [Example 10, (S)-6-{2-Amino-2-[3-(benzoy[d]isoxazol-3-yl)pyridine-2-yl]ethyl}pyridine-2-carbonitrile hydrochloride]",IC50,HCN2,1.9 µM
same,IC50,HCN4,16.7 µM
"N[C@@H](Cc1ncccc1F)c1ncccc1-c1noc2ccccc12 [Example 23, (S)-1-[3-(Benzo[d]isoxazol-3-yl)pyridine-2-yl]-2-(3-fluoropyridine-2-yl)ethan-1-amine hydrochloride]",IC50,HCN2,1.7 µM
same,IC50,HCN4,9.5 µM
"CN(C)C(=O)CCc1cccc(C[C@H](N)c2ncccc2-c2noc3ccccc23)n1 [Example 21, (S)-3-(6-{2-Amino-2-[3-(benzo[d]isoxazol-3-yl)pyridine-2-ylethyl}priding-2-yl)-N,N-dimethylpropanamide hydrochloride]",IC50,HCN2,8.9 µM
same,IC50,HCN4,> 30 µM
"CC(c1ccccn1)[C@H](N)c1ncccc1-c1noc2ccccc12 (single isomer, unassigned) [Example 12, hydrochloride]",IC50,HCN2,4.5 µM
"Cn1nc(-c2ccccc2[C@@H](N)Cc2ccccn2)c2cccnc21 [Example 1, (S)-1-[2-(1-Methyl-1H-pyrazolo[3,4-b]pyridine-3-yl)phenyl]-2-(pyridin-2-yl)ethan-1-amine hydrochloride]",IC50,HCN2,16.8 µM
"NC(=O)c1cccc(C[C@H](N)c2ncccc2-c2noc3ccccc23)n1 [Example 17, (S)-6-{2-Amino-2-[3-(benzoy[d]isoxazol-3-yl)pyridine-2-yl]ethyl}pyridine-2-carboxamide]",IC50,HCN2,6.4 µM
same,IC50,HCN4,> 30 µM
"Cc1ccc(-c2noc3ccccc23)c([C@@H](N)Cc2ccccn2)n1 [Example 9, (S)-1-[3-(Benzoy[d]isoxazol-3-yl)-6-methylpyridine-2-yl]-2-(pyridine-2-yl)ethan-1-amine hydrochloride]",IC50,HCN2,3.2 µM
same,IC50,HCN4,> 30 µM
"N[C@@H](Cc1ccccn1)c1cccnc1-c1noc2ccccc12 [Example 5, (S)-1-[2-(Benzoy[d]isoxazol-3-yl)pyridine-3-yl}-2-(pyridine-2-yl)ethan-1-amine hydrochloride]",IC50,HCN2,19 µM
"Cn1nc(-c2ccccc2[C@@H](N)Cc2ccccn2)c2ccncc21 [Example 8, (S)-1-[2-(1-Methyl-1H-pyrazolo[3,4-c]pyridine-3-yl)phenyl]-2-(pyridine-2-yl)ethan-1-amine hydrochloride]",IC50,HCN2,7.9 µM
same,IC50,HCN4,> 30 µM
"N[C@@H](Cc1ccccn1)c1ccccc1-c1noc2cnccc12 [Example 14, (S)-1-[2-(Isoxazolo[5,4-c]pyridine-3-yl)phenyl]-2-(pyridin-2-yl)ethan-1-amine]",IC50,HCN2,12.3 µM
"Cc1ccc(F)c(C[C@H](N)c2ncccc2-c2noc3ccccc23)n1 [Example 24, (S)-1-[3-(Benzo[d]isoxazol-3-yl)pyridine-2-yl]-2-(3-fluoro-6-methylpyridine-2-yl)ethan-1-amine hydrochloride]",IC50,HCN2,4.2 µM
"N[C@@H](Cc1ccccn1)c1ncccc1-c1noc2ccccc12 [Example 6, (S)-1-[3-(Benzoy[d]isoxazol-3-yl)pyridine-2-yl}-2-(pyridine-2-yl)ethan-1-amine hydrochloride]",IC50,HCN2,2.2 µM
same,IC50,HCN4,> 30 µM
"Cc1ccc(Br)nc1C[C@H](N)c1ncccc1-c1noc2ccccc12 [Example 22, (S)-1-[3-(Benzo[d]isoxazol-3-yl)pyridine-2-yl]-2-(6-bromo-3-methylpyridine-2-yl)ethan-1-amine hydrochloride]",IC50,HCN2,1.6 µM
same,IC50,HCN4,10.3 µM
"Cn1nc(-c2ccccc2[C@@H](N)Cc2cccc(C#N)n2)c2ccncc21 [Example 16, (S)-6-{2-Amino-2-[2-(1-methyl-1H-pyrazolo[3,4-c]pyridine-3-yl)phenyl]ethyl}pyridine-2-carbonitrile]",IC50,HCN2,6.8 µM
same,IC50,HCN4,> 30 µM
"N[C@@H](Cc1ccccn1)c1ccncc1-c1noc2ccccc12 [Example 7, (S)-1-[3-(Benzoy[d]isoxazol-3-yl)pyridine-4-yl}-2-(pyridine-2-yl)ethan-1-amine hydrochloride]",IC50,HCN2,13.8 µM
"Cc1cccc(C[C@H](N)c2ncccc2-c2noc3ccccc23)n1 [Example 11, (S)-1-[3-(Benzoy[d]isoxazol-3-yl)pyridine-2-yl]-2-(6-methylpyridine-2-yl)ethan-1-amine hydrochloride]",IC50,HCN2,5.1 µM
same,IC50,HCN4,22.9 µM
"N[C@@H](Cc1cccc(OCCO)n1)c1ncccc1-c1noc2ccccc12 [Example 19, (S)-2-[(6-{2-Amino-2-[3-(benzoy[d]isoxazol-3-yl)pyridine-2-yl]ethyl}pyridine-2-yl)oxy]ethano-1-ol]",IC50,HCN2,4 µM
same,IC50,HCN4,> 30 µM
"CN(C)C(=O)c1cccc(C[C@H](N)c2ncccc2-c2noc3ccccc23)n1 [Example 18, (S)-6-{2-Amino-2-[3-(benzoy[d]isoxazol-3-yl)pyridine-2-yl]ethyl}-N,N-dimethylpyridine-2-carboxamide]",IC50,HCN2,11.2 µM
same,IC50,HCN4,> 30 µM
"Cc1cccc(C[C@H](N)c2ccccc2-c2nn(C)c3cnccc23)n1 [Example 15, (S)-1-[2-(1-Methyl-1H-pyrazolo[3,4-c]pyridine-3-yl)phenyl]-2-(6-methylpyridine-2-yl)ethan-1-amine hydrochloride]",IC50,HCN2,7.7 µM
same,IC50,HCN4,> 30 µM
"N[C@@H](Cc1ncccn1)c1ncccc1-c1noc2ccccc12 [Example 20, (S)-1-[3-(Benzo[d]isoxazol-3-yl)pyridine-2-yl]-2-(pyrimidin-2-yl)ethan-1-amine]",IC50,HCN2,9 µM
same,IC50,HCN4,> 30 µM
"CC(c1ccccn1)[C@H](N)c1ncccc1-c1noc2ccccc12 (single isomer, unassigned) [Example 13, hydrochloride]",IC50,HCN2,9.6 µM
"N[C@@H](Cc1ccccn1)c1ccccc1-c1noc2ncccc12 [Example 2, (S)-1-[2-(Isoxazolo[5,4-b]pyridine-3-yl)phenyl]-2-(pyridin-2-yl)ethan-1-amine]",IC50,HCN2,10.2 µM
